In article PMC12631912, “A Multifunctional Molecular Probe for Multimodal Imaging‐Guided Potent Photothermal/Photodynamic Therapy of Endometriosis” (Advanced Science, 2025):

What was measured:
[1] = UV absorption and fluorescence emission spectra; format: physicochemical; details: in PBS, cRGD-ILD C ICG = 10 µg mL^−1, ICG 5 µg/mL
Method: The ^1H NMR spectra were conducted utilizing a Varian Unity 400 MHz Spectrometer ([…]) in a variety of deuterated solvents. ESI‐MS were obtained with a Thermo Scientific LTQ XL mass spectrometer (Thermo, USA). UV absorption spectra were measured by a Unico UV‐2000 UV–vis Spectrophotometer (Shanghai, China). Photoluminescence excitation and emission spectra were recorded using an FSP920‐combined Time Resolved and Steady State Fluorescence Spectrometer (Edinburgh, UK), equipped with a 450‐W xenon lamp. Both the UV and fluorescence spectrophotometers were scanned within the wavelength range of 650–850 nm.

[2] = free ICG; cited from earlier work
[3] = set-up: method as in earlier work; details: clinically approved contrast agent; cited from earlier work

SMILES | fluorescence emission peak ([1]; λex = 755 nm) | absorption peak [1] | Photothermal conversion efficiency (PCE) [2] | T 1 relaxivities (r 1) [3]
CC1(C)C(/C=C/C=C/C=C/C=C2\N(CCCCS(=O)(=O)O)c3ccc4ccccc4c3C2(C)C)=[N+](CCCCS(=O)(=O)[O-])c2ccc3ccccc3c21 [ICG, indocyanine green, reference compound] | 764 nm | 755 nm | 15.8% | –
CNC[C@H](O)[C@@H](O)[C@H](O)[C@H](O)CO.CNC[C@H](O)[C@@H](O)[C@H](O)[C@H](O)CO.O=C([O-])CN(CCN(CC(=O)[O-])CC(=O)O)CCN(CC(=O)[O-])CC(=O)O.[Gd+3] [Magnevist] | – | – | – | 5.35 mM⁻¹ s⁻¹
